Assay results taken from patent US20110190130A1, “SYNERGISTIC HERBICIDAL COMPOSITION CONTAINING AMINOPYRALID AND 2,4-DICHLOROPHENOXYACETIC ACID” (DOW AGROSCIENCES LLC, priority 2010, published 2011).

Tests used:
Assay type in all cases: in vivo
[1] = tested on: rice flatsedge (Cyperus iria, CYPIR); test: Postemergence herbicidal activity of mixtures under field conditions, rice flatsedge; details: 27 days after application
Method: (§1) These trials were conducted under field conditions in Tolima, Colombia. Trial sites were located in commercially grown fields of common rice (Oryza sativa). The rice crop was grown using normal cultural practices for fertilization, seeding, and maintenance to ensure good growth of the crop and the weeds. The trials were conducted using normal research methodology. Trial plots were 3 meters (m) wide by 6 m long. All treatments were applied using a randomized complete block trial design with 4 replications per treatment. The trial sites had naturally occurring populations of weeds. The weed spectrum included, but was not limited to, rice flatsedge (Cyperus iria, CYPIR); purple nutsedge (Cyperus rotundus, CYPRO); and common purslane, (Portulaca oleracea, POROL). The plots were treated with a postemergence foliar application 15 to 20 days after emergence of the rice.
(§2) Treatments consisted of tank mixes of soluble granules of aminopyralid tri-isopropanolammonium salt and commercially available formulations of 2,4-D (DMA 6 herbicide, water dispersible granules). The application volume was 160 liters per hectare (L/ha) of water. All application were made using precision gas hand sprayers using a 3 m boom using flat fan) (80° nozzles to broadcast the treatments over the top of the rice.
(§3) The treated plots and control plots were rated blind at various intervals after application. Ratings were based of Percent (%) Visual weed control, where 0 corresponds to no injury and 100 corresponds to complete kill.
(§4) Colby's equation was used to determine the herbicidal effects expected from the mixtures (Colby, S. R. Calculation of the synergistic and antagonistic response of herbicide combinations. Weeds 1967 15, 20-22).
(§5) The following equation was used to calculate the expected activity of mixtures containing two active ingredients, A and B:
(§6) A=observed efficacy of active ingredient A at the same concentration as used in the mixture;
(§7) B=observed efficacy of active ingredient B at the same concentration as used in the mixture.

[2] = tested on: common purslane (Portulaca oleracea, POROL); test: Postemergence herbicidal activity of mixtures under field conditions, common purslane; details: 27 days after application, rice
Method: as §1, §2, §3, §4, §5, §6, §7

[3] = tested on: purple nutsedge (Cyperus rotundus, CYPRO); test: Postemergence herbicidal activity of mixtures under field conditions, purple nutsedge; details: 27 days after application, rice
Method: as §1, §2, §3, §4, §5, §6, §7

[4] = aminopyralid 9 grams ae/ha alone
[5] = aminopyralid 12 grams ae/ha alone

Compound | % Control CYPIR Obs ([1]; 2,4-D 180 grams ae/ha alone) [%] | % Control CYPIR Obs ([1]; 2,4-D 240 grams ae/ha alone) [%] | % Control POROL Obs ([2]; 2,4-D 180 grams ae/ha alone) [%] | % Control POROL Obs ([2]; 2,4-D 240 grams ae/ha alone) [%] | % Control CYPRO Obs ([3]; 2,4-D 180 grams ae/ha alone) [%] | % Control CYPRO Obs ([3]; 2,4-D 240 grams ae/ha alone) [%] | % Control CYPIR Obs [1, 4] [%] | % Control CYPIR Obs [1, 5] [%] | % Control POROL Obs [2, 4] [%] | % Control POROL Obs [2, 5] [%] | % Control CYPRO Obs [3, 4] [%] | % Control CYPRO Obs [3, 5] [%]
O=C(O)COc1ccc(Cl)cc1Cl [2,4-D, 2,4-dichlorophenoxyacetic acid] | 45 | 46 | 20 | 39 | 38 | 60 |  |  |  |  |  | 
Nc1cc(Cl)nc(C(=O)O)c1Cl [Aminopyralid, 4-amino-3,6-dichloro-2-pyridinecarboxylic acid] |  |  |  |  |  |  | 0 | 13 | 41 | 53 | 0 | 0
